Measured values as given in ChEMBL document CHEMBL4808179 (Bioorg Med Chem Lett, 2021).
In brackets after ≈: the same amount, converted by molar mass.

What was measured:
Acinetobacter baumannii = experiment: Antibacterial activity against Acinetobacter baumannii assessed as bacterial growth inhibition; type: functional
Enterococcus faecium [1] = experiment: Antibacterial activity against vancomycin resistant Enterococcus faecium Van M HS-08267 assessed as inhibition of bacterial growth; type: functional
Staphylococcus aureus [2] = experiment: Antibacterial activity against methicillin-susceptible Staphylococcus aureus Newman assessed as bacterial growth inhibition; type: functional
Enterococcus faecium [3] = experiment: Antibacterial activity against vancomycin resistant Enterococcus faecium Van B V(R) assessed as inhibition of bacterial growth; type: functional
Enterococcus faecium [4] = experiment: Antibacterial activity against vancomycin resistant Enterococcus faecium Van A HS-06188 assessed as inhibition of bacterial growth; type: functional
Staphylococcus aureus [5] = experiment: Antibacterial activity against vancomycin-intermediate Staphylococcus aureus Mu50 assessed as bacterial growth inhibition; type: functional
Staphylococcus aureus [6] = experiment: Antibacterial activity against methicillin-resistant Staphylococcus aureus HS-663 assessed as bacterial growth inhibition; type: functional
Staphylococcus aureus [7] = experiment: Antibacterial activity against methicillin-resistant Staphylococcus aureus USA300 assessed as bacterial growth inhibition; type: functional
Enterococcus faecium [8] = experiment: Antibacterial activity against vancomycin resistant Enterococcus faecium Van M HS-0847 assessed as inhibition of bacterial growth; type: functional
Escherichia coli = experiment: Antibacterial activity against Escherichia coli AB1157 assessed as bacterial growth inhibition; type: functional
Enterococcus faecium [9] = experiment: Antibacterial activity against vancomycin resistant Enterococcus faecium Van A HS-0649 assessed as inhibition of bacterial growth; type: functional
L02 = experiment: Cytotoxicity against human L02 cells assessed as reduction in cell viability >= 12.5 uM; type: cell-based
Enterococcus faecium [10] = experiment: Potency index, ratio of Vancomycin MIC to test compound MIC for antibacterial activity against vancomycin resistant Enterococcus faecium Van M HS-08267 assessed as inhibition of bacterial growth; type: functional
Enterococcus faecium [11] = experiment: Potency index, ratio of Vancomycin MIC to test compound MIC for antibacterial activity against vancomycin resistant Enterococcus faecium Van B V(R) assessed as inhibition of bacterial growth; type: functional
Enterococcus faecium [12] = experiment: Potency index, ratio of Vancomycin MIC to test compound MIC for antibacterial activity against vancomycin resistant Enterococcus faecium Van M HS-0847 assessed as inhibition of bacterial growth; type: functional
Enterococcus faecium [13] = experiment: Potency index, ratio of Vancomycin MIC to test compound MIC for antibacterial activity against vancomycin resistant Enterococcus faecium Van A HS-06188 assessed as inhibition of bacterial growth; type: functional
Staphylococcus aureus [14] = experiment: Potency index, ratio of Vancomycin MIC to test compound MIC for antibacterial activity against vancomycin-intermediate Staphylococcus aureus Mu50 assessed as bacterial growth inhibition; type: functional
Staphylococcus aureus [15] = experiment: Potency index, ratio of Vancomycin MIC to test compound MIC for antibacterial activity against methicillin-susceptible Staphylococcus aureus Newman assessed as bacterial growth inhibition; type: functional

Structure (SMILES) | MIC (Acinetobacter baumannii) [µg/mL] | MIC (Enterococcus faecium [1]) [µg/mL] | MIC (Staphylococcus aureus [2]) [µg/mL] | MIC (Enterococcus faecium [3]) [µg/mL] | MIC (Enterococcus faecium [4]) [µg/mL] | MIC (Staphylococcus aureus [5]) [µg/mL] | MIC (Staphylococcus aureus [6]) [µg/mL] | MIC (Staphylococcus aureus [7]) [µg/mL] | MIC (Enterococcus faecium [8]) [µg/mL] | MIC (Escherichia coli) [µg/mL] | MIC (Enterococcus faecium [9]) [µg/mL] | Activity (L02) | Ratio (Enterococcus faecium [10]) | Ratio (Enterococcus faecium [11]) | Ratio (Enterococcus faecium [12]) | Ratio (Enterococcus faecium [13]) | Ratio (Staphylococcus aureus [14]) | Ratio (Staphylococcus aureus [15])
CN[C@H](CC(C)C)C(=O)N[C@H]1C(=O)N[C@@H](CC(N)=O)C(=O)N[C@H]2C(=O)N[C@H]3C(=O)N[C@H](C(=O)N[C@H](C(=O)N[C@@H](CS)C(=O)N[C@@H](CCCNC(=N)N)C(=O)N[C@@H](CCCCN)C(=O)N[C@H](C(=O)N[C@@H](CCCNC(=N)N)C(=O)NCC(=O)N4CCC[C@H]4C(=O)N4CCC[C@H]4C(=O)O)C(C)C)c4cc(O)cc(O)c4-c4cc3ccc4O)[C@H](O)c3ccc(c(Cl)c3)Oc3cc2cc(c3O[C@@H]2O[C@H](CO)[C@@H](O)[C@H](O)[C@H]2O[C@H]2C[C@](C)(N)[C@H](O)[C@H](C)O2)Oc2ccc(cc2Cl)[C@H]1O | > 128 | 32 (≈ 13.7 µM) | 32 (≈ 13.7 µM) | 16 (≈ 6.83 µM) | 16 (≈ 6.83 µM) | 64 (≈ 27.3 µM) | 16 (≈ 6.83 µM) | 16 (≈ 6.83 µM) | 32 (≈ 13.7 µM) | > 128 |  |  |  |  |  |  |  | 
CN[C@H](CC(C)C)C(=O)N[C@H]1C(=O)N[C@@H](CC(N)=O)C(=O)N[C@H]2C(=O)N[C@H]3C(=O)N[C@H](C(=O)N[C@H](C(=O)N[C@@H](CCCNC(=N)N)C(=O)O)c4cc(O)cc(O)c4-c4cc3ccc4O)[C@H](O)c3ccc(c(Cl)c3)Oc3cc2cc(c3O[C@@H]2O[C@H](CO)[C@@H](O)[C@H](O)[C@H]2O[C@H]2C[C@](C)(N)[C@H](O)[C@H](C)O2)Oc2ccc(cc2Cl)[C@H]1O | > 128 | 128 (≈ 79.7 µM) | 8 (≈ 4.98 µM) | 64 (≈ 39.9 µM) | 128 (≈ 79.7 µM) | 64 (≈ 39.9 µM) | 0.5 (≈ 0.311 µM) | 4 (≈ 2.49 µM) | 128 (≈ 79.7 µM) | > 128 | > 128 | Toxic |  |  |  |  |  | 
CN[C@H](CC(C)C)C(=O)N[C@H]1C(=O)N[C@@H](CC(N)=O)C(=O)N[C@H]2C(=O)N[C@H]3C(=O)N[C@H](C(=O)N[C@H](C(=O)N/N=C/c4ccc(-c5ccccc5)cc4)c4cc(O)cc(O)c4-c4cc3ccc4O)[C@H](O)c3ccc(c(Cl)c3)Oc3cc2cc(c3O[C@@H]2O[C@H](CO)[C@@H](O)[C@H](O)[C@H]2O[C@H]2C[C@](C)(N)[C@H](O)[C@H](C)O2)Oc2ccc(cc2Cl)[C@H]1O | > 128 | 2 (≈ 1.23 µM) | ≤ 0.0625 | 2 (≈ 1.23 µM) | 4 (≈ 2.46 µM) | 2 (≈ 1.23 µM) | 0.0625 (≈ 0.0384 µM) | 0.25 (≈ 0.154 µM) | 4 (≈ 2.46 µM) | 128 (≈ 78.6 µM) | 4 (≈ 2.46 µM) |  | 8 | 8 | 8 | 8 | 2 | 32
CN[C@H](CC(C)C)C(=O)N[C@H]1C(=O)N[C@@H](CC(N)=O)C(=O)N[C@H]2C(=O)N[C@H]3C(=O)N[C@H](C(=O)N[C@H](C(=O)NNCc4ccc(-c5ccc(C(F)(F)F)cc5)cc4)c4cc(O)cc(O)c4-c4cc3ccc4O)[C@H](O)c3ccc(c(Cl)c3)Oc3cc2cc(c3O[C@@H]2O[C@H](CO)[C@@H](O)[C@H](O)[C@H]2O[C@H]2C[C@](C)(N)[C@H](O)[C@H](C)O2)Oc2ccc(cc2Cl)[C@H]1O | 64 (≈ 37.7 µM) | 2 (≈ 1.18 µM) | 1 (≈ 0.589 µM) | 4 (≈ 2.36 µM) | 8 (≈ 4.71 µM) | 2 (≈ 1.18 µM) | 0.0625 (≈ 0.0368 µM) | 0.5 (≈ 0.295 µM) | 4 (≈ 2.36 µM) | > 128 | 8 (≈ 4.71 µM) |  | 8 | 8 | 8 | 8 |  | 
CN[C@H](CC(C)C)C(=O)N[C@H]1C(=O)N[C@@H](CC(N)=O)C(=O)N[C@H]2C(=O)N[C@H]3C(=O)N[C@H](C(=O)N[C@H](C(=O)NNCc4ccccc4)c4cc(O)cc(O)c4-c4cc3ccc4O)[C@H](O)c3ccc(c(Cl)c3)Oc3cc2cc(c3O[C@@H]2O[C@H](CO)[C@@H](O)[C@H](O)[C@H]2O[C@H]2C[C@](C)(N)[C@H](O)[C@H](C)O2)Oc2ccc(cc2Cl)[C@H]1O | > 128 | 32 (≈ 20.6 µM) | 1 (≈ 0.644 µM) | 128 (≈ 82.4 µM) | 64 (≈ 41.2 µM) | 4 (≈ 2.57 µM) | 0.25 (≈ 0.161 µM) | 1 (≈ 0.644 µM) | 64 (≈ 41.2 µM) | > 128 | 128 (≈ 82.4 µM) |  |  |  |  |  |  | 
CN[C@H](CC(C)C)C(=O)N[C@H]1C(=O)N[C@@H](CC(N)=O)C(=O)N[C@H]2C(=O)N[C@H]3C(=O)N[C@H](C(=O)N[C@H](C(=O)N/N=C/c4ccc(-c5ccc(C(F)(F)F)cc5)cc4)c4cc(O)cc(O)c4-c4cc3ccc4O)[C@H](O)c3ccc(c(Cl)c3)Oc3cc2cc(c3O[C@@H]2O[C@H](CO)[C@@H](O)[C@H](O)[C@H]2O[C@H]2C[C@](C)(N)[C@H](O)[C@H](C)O2)Oc2ccc(cc2Cl)[C@H]1O | > 128 | 2 (≈ 1.18 µM) | 1 (≈ 0.59 µM) | 1 (≈ 0.59 µM) | 4 (≈ 2.36 µM) | 2 (≈ 1.18 µM) | 0.0625 (≈ 0.0369 µM) | 0.5 (≈ 0.295 µM) | 4 (≈ 2.36 µM) | > 128 | 4 (≈ 2.36 µM) |  | 8 | 8 | 8 | 8 |  | 
CN[C@H](CC(C)C)C(=O)N[C@H]1C(=O)N[C@@H](CC(N)=O)C(=O)N[C@H]2C(=O)N[C@H]3C(=O)N[C@H](C(=O)N[C@H](C(=O)N/N=C/c4ccccc4)c4cc(O)cc(O)c4-c4cc3ccc4O)[C@H](O)c3ccc(c(Cl)c3)Oc3cc2cc(c3O[C@@H]2O[C@H](CO)[C@@H](O)[C@H](O)[C@H]2O[C@H]2C[C@](C)(N)[C@H](O)[C@H](C)O2)Oc2ccc(cc2Cl)[C@H]1O | > 128 | 64 (≈ 41.3 µM) | 2 (≈ 1.29 µM) | 128 (≈ 82.5 µM) | 128 (≈ 82.5 µM) | 16 (≈ 10.3 µM) | 0.5 (≈ 0.322 µM) | 2 (≈ 1.29 µM) | 64 (≈ 41.3 µM) | > 128 | 128 (≈ 82.5 µM) | Toxic |  |  |  |  |  | 
CN[C@H](CC(C)C)C(=O)N[C@H]1C(=O)N[C@@H](CC(N)=O)C(=O)N[C@H]2C(=O)N[C@H]3C(=O)N[C@H](C(=O)N[C@H](C(=O)N[C@@H](CS)C(=O)O)c4cc(O)cc(O)c4-c4cc3ccc4O)[C@H](O)c3ccc(c(Cl)c3)Oc3cc2cc(c3O[C@@H]2O[C@H](CO)[C@@H](O)[C@H](O)[C@H]2O[C@H]2C[C@](C)(N)[C@H](O)[C@H](C)O2)Oc2ccc(cc2Cl)[C@H]1O | > 128 | 8 (≈ 5.15 µM) | 64 (≈ 41.2 µM) | 8 (≈ 5.15 µM) | 16 (≈ 10.3 µM) | 128 (≈ 82.5 µM) | 2 (≈ 1.29 µM) | 32 (≈ 20.6 µM) | 8 (≈ 5.15 µM) | > 128 | > 128 | Toxic | 8 | 8 | 8 | 8 |  | 
CC[C@H](C)[C@H](NC(=O)[C@H](CCCCN)NC(=O)[C@@H](NC(=O)[C@H](CC(N)=O)NC(=O)[C@H](CS)NC(=O)[C@H]1NC(=O)[C@H]2NC(=O)[C@H](NC(=O)[C@@H]3NC(=O)[C@H](CC(N)=O)NC(=O)[C@H](NC(=O)[C@@H](CC(C)C)NC)[C@H](O)c4ccc(c(Cl)c4)Oc4cc3cc(c4O[C@@H]3O[C@H](CO)[C@@H](O)[C@H](O)[C@H]3O[C@H]3C[C@](C)(N)[C@H](O)[C@H](C)O3)Oc3ccc(cc3Cl)[C@H]2O)c2ccc(O)c(c2)-c2c(O)cc(O)cc21)[C@@H](C)CC)C(=O)N[C@@H](CO)C(=O)NCC(=O)N[C@@H](CCCCN)C(=O)N[C@@H](Cc1c[nH]c2ccccc12)C(=O)N[C@@H](CCCCN)C(=O)N[C@@H](C)C(=O)N[C@@H](CCC(N)=O)C(=O)N[C@@H](CCCCN)C(=O)N[C@@H](CCCNC(=N)N)C(=O)N[C@@H](Cc1ccccc1)C(=O)N[C@@H](CC(C)C)C(=O)O | > 128 | 32 (≈ 9.55 µM) | 32 (≈ 9.55 µM) | 32 (≈ 9.55 µM) | 64 (≈ 19.1 µM) | 32 (≈ 9.55 µM) | 16 (≈ 4.77 µM) | 32 (≈ 9.55 µM) | 32 (≈ 9.55 µM) | > 128 |  |  |  |  |  |  |  | 
CN[C@H](CC(C)C)C(=O)N[C@H]1C(=O)N[C@@H](CC(N)=O)C(=O)N[C@H]2C(=O)N[C@H]3C(=O)N[C@H](C(=O)N[C@H](C(=O)N[C@@H](CCCNC(=N)N)C(N)=O)c4cc(O)cc(O)c4-c4cc3ccc4O)[C@H](O)c3ccc(c(Cl)c3)Oc3cc2cc(c3O[C@@H]2O[C@H](CO)[C@@H](O)[C@H](O)[C@H]2O[C@H]2C[C@](C)(N)[C@H](O)[C@H](C)O2)Oc2ccc(cc2Cl)[C@H]1O | > 128 | 64 (≈ 39.9 µM) | 2 (≈ 1.25 µM) | 64 (≈ 39.9 µM) | 64 (≈ 39.9 µM) | 2 (≈ 1.25 µM) | 0.25 (≈ 0.156 µM) |  | 64 (≈ 39.9 µM) | 32 (≈ 19.9 µM) | 64 (≈ 39.9 µM) | Toxic |  |  |  |  |  | 
CN[C@H](CC(C)C)C(=O)N[C@H]1C(=O)N[C@@H](CC(N)=O)C(=O)N[C@H]2C(=O)N[C@H]3C(=O)N[C@H](C(=O)N[C@H](C(=O)O)c4cc(O)cc(O)c4-c4cc3ccc4O)[C@H](O)c3ccc(c(Cl)c3)Oc3cc2cc(c3O[C@@H]2O[C@H](CO)[C@@H](O)[C@H](O)[C@H]2O[C@H]2C[C@](C)(N)[C@H](O)[C@H](C)O2)Oc2ccc(cc2Cl)[C@H]1O [VANCOMYCIN] |  |  |  |  |  | 8 (≈ 5.52 µM) | 0.25 (≈ 0.173 µM) |  | 64 (≈ 44.2 µM) |  |  |  |  |  |  |  |  | 
